According to ChEMBL document CHEMBL1201862, “PubChem BioAssay data set” (2004):
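Dose response: 5 concentrations. Exposure: 48 h. Format: 96-well plates. Endpoint: linear interpolation; highest concentration if not reached. Here, GI50 denotes the concentration required for 50% inhibition of growth.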 The source made the active and inactive calls. No stated cut-off is given here; in the data, active = GI50 up to about 1.1 µM and inactive = higher.

Columns and labels:
Assay in all cases: inhibition of tumour cell growth, NCI panel, 48 h
EKVX = tested on: EKVX
HOP-92 = tested on: HOP-92
Hs-578T = tested on: Hs-578T
SF-295 = tested on: SF-295
NCI-H23 = tested on: NCI-H23
SK-MEL-2 = tested on: SK-MEL-2
OVCAR-5 = tested on: OVCAR-5
PC-3 = tested on: PC-3
SK-MEL-5 = tested on: SK-MEL-5
M14 = tested on: M14
MOLT-4 = tested on: MOLT-4
MDA-MB-435 = tested on: MDA-MB-435
A498 = tested on: A498
CAKI-1 = tested on: CAKI-1
SF-539 = tested on: SF-539
SNB-75 = tested on: SNB-75
IGROV-1 = tested on: IGROV-1
MDA-MB-231 = tested on: MDA-MB-231
SK-MEL-28 = tested on: SK-MEL-28
T47D = tested on: T47D
MDA-N = tested on: MDA-N
SF-268 = tested on: SF-268
SNB-19 = tested on: SNB-19
U-251 = tested on: U-251
NCI-H226 = tested on: NCI-H226
SK-OV-3 = tested on: SK-OV-3
K562 = tested on: K562
RPMI-8226 = tested on: RPMI-8226
CCRF-CEM = tested on: CCRF-CEM
DU-145 = tested on: DU-145
SR = tested on: SR
ACHN = tested on: ACHN
HCT-116 = tested on: HCT-116
UACC-257 = tested on: UACC-257
COLO 205 = tested on: COLO 205
TK-10 = tested on: TK-10
UACC-62 = tested on: UACC-62
MCF7 = tested on: MCF7
HT-29 = tested on: HT-29
KM12 = tested on: KM12
NCI-H522 = tested on: NCI-H522
SN12C = tested on: SN12C
NCI-H460 = tested on: NCI-H460
UO-31 = tested on: UO-31
RXF 393 = tested on: RXF 393
786-0 = tested on: 786-0
LOX IMVI = tested on: LOX IMVI
HCC 2998 = tested on: HCC 2998
BT-549 = tested on: BT-549
OVCAR-3 = tested on: OVCAR-3
HL-60 = tested on: HL-60
NCI/ADR-RES = tested on: NCI/ADR-RES
OVCAR-4 = tested on: OVCAR-4
SW-620 = tested on: SW-620
A549 = tested on: A549
HCT-15 = tested on: HCT-15
OVCAR-8 = tested on: OVCAR-8
HOP-62 = tested on: HOP-62
Malme-3M = tested on: Malme-3M

How did the GI50 (EKVX) turn out when Oc1ccc(/N=N/c2ccc(Cl)cc2)cc1 was run?
Its GI50 is 17.3 µM (inactive).

What about the GI50 (HOP-92) of the same compound?
Its GI50 is 12.7 µM (inactive).

What about the GI50 (Hs-578T) of the same compound?
Its GI50 is 28.8 µM (inactive).

What about the GI50 (SF-295) of the same compound?
The GI50 was 16.4 µM (inactive).

What about the GI50 (NCI-H23) of the same compound?
Its GI50 is 16.4 µM (inactive).

And the GI50 (SK-MEL-2)?
The GI50 was 14.2 µM (inactive).

And the GI50 (OVCAR-5)?
Its GI50 is 17.4 µM (inactive).

What about the GI50 (PC-3) of the same compound?
The GI50 was 14.9 µM (inactive).

And the GI50 (SK-MEL-5)?
Its GI50 is 11.7 µM (inactive).

What about the GI50 (M14) of the same compound?
Its GI50 is 10.7 µM (inactive).

And the GI50 (MOLT-4)?
Its GI50 is 13.2 µM (inactive).

What about the GI50 (MDA-MB-435) of the same compound?
The GI50 was 14.9 µM (inactive).

And the GI50 (A498)?
The GI50 was 17.3 µM (inactive).

And the GI50 (CAKI-1)?
Its GI50 is 14.4 µM (inactive).

What about the GI50 (SF-539) of the same compound?
The GI50 was 18.4 µM (inactive).

And the GI50 (SNB-75)?
The GI50 was 18.9 µM (inactive).

What about the GI50 (IGROV-1) of the same compound?
The GI50 was 12.9 µM (inactive).

And the GI50 (MDA-MB-231)?
Its GI50 is 10.8 µM (inactive).

What about the GI50 (SK-MEL-28) of the same compound?
The GI50 was 23 µM (inactive).

What about the GI50 (T47D) of the same compound?
The GI50 was 15 µM (inactive).

And the GI50 (MDA-N)?
Its GI50 is 16.9 µM (inactive).

What about the GI50 (SF-268) of the same compound?
Its GI50 is 17.7 µM (inactive).

What about the GI50 (SNB-19) of the same compound?
Its GI50 is 18 µM (inactive).

And the GI50 (U-251)?
The GI50 was 15.4 µM (inactive).

And the GI50 (NCI-H226)?
The GI50 was 17.7 µM (inactive).

What about the GI50 (SK-OV-3) of the same compound?
Its GI50 is 21.9 µM (inactive).

What about the GI50 (K562) of the same compound?
Its GI50 is 19.6 µM (inactive).

What about the GI50 (RPMI-8226) of the same compound?
The GI50 was 24.2 µM (inactive).

What about the GI50 (CCRF-CEM) of the same compound?
Its GI50 is 4.63 µM (inactive).

And the GI50 (DU-145)?
Its GI50 is 16.4 µM (inactive).

What about the GI50 (SR) of the same compound?
Its GI50 is 19.5 µM (inactive).

What about the GI50 (ACHN) of the same compound?
The GI50 was 12.9 µM (inactive).

And the GI50 (HCT-116)?
Its GI50 is 15.9 µM (inactive).

What about the GI50 (UACC-257) of the same compound?
The GI50 was 15.8 µM (inactive).

What about the GI50 (COLO 205) of the same compound?
Its GI50 is 18.4 µM (inactive).

What about the GI50 (TK-10) of the same compound?
Its GI50 is 18.1 µM (inactive).

And the GI50 (UACC-62)?
The GI50 was 11.9 µM (inactive).

And the GI50 (MCF7)?
The GI50 was 17.7 µM (inactive).

And the GI50 (HT-29)?
The GI50 was 18.3 µM (inactive).

And the GI50 (KM12)?
The GI50 was 13 µM (inactive).

What about the GI50 (NCI-H522) of the same compound?
The GI50 was 11.6 µM (inactive).

What about the GI50 (SN12C) of the same compound?
The GI50 was 17.1 µM (inactive).

What about the GI50 (NCI-H460) of the same compound?
The GI50 was 16.9 µM (inactive).

What about the GI50 (UO-31) of the same compound?
The GI50 was 13.7 µM (inactive).

What about the GI50 (RXF 393) of the same compound?
Its GI50 is 15.4 µM (inactive).

What about the GI50 (786-0) of the same compound?
The GI50 was 17.3 µM (inactive).

What about the GI50 (LOX IMVI) of the same compound?
The GI50 was 11.9 µM (inactive).

What about the GI50 (HCC 2998) of the same compound?
The GI50 was 15.7 µM (inactive).

What about the GI50 (BT-549) of the same compound?
Its GI50 is 15.1 µM (inactive).

What about the GI50 (OVCAR-3) of the same compound?
The GI50 was 21.7 µM (inactive).

What about the GI50 (HL-60) of the same compound?
Its GI50 is 4.38 µM (inactive).

And the GI50 (NCI/ADR-RES)?
The GI50 was 18.1 µM (inactive).

What about the GI50 (OVCAR-4) of the same compound?
The GI50 was 14.9 µM (inactive).

What about the GI50 (SW-620) of the same compound?
Its GI50 is 30.5 µM (inactive).

And the GI50 (A549)?
Its GI50 is 14.2 µM (inactive).

And the GI50 (HCT-15)?
Its GI50 is 14.7 µM.

And the GI50 (OVCAR-8)?
The GI50 was 16.6 µM (inactive).

What about the GI50 (HOP-62) of the same compound?
Its GI50 is 18.4 µM (inactive).

Which results are given for CC1C(c2ccccc2)OP(=O)(OC(C#N)c2ccccc2)N1C (stereo not given)?
GI50 (EKVX): > 100 µM (inactive); GI50 (HOP-92): 89.9 µM (inactive); GI50 (Hs-578T): > 100 µM (inactive); GI50 (SF-295): > 100 µM (inactive); GI50 (NCI-H23): > 100 µM (inactive); GI50 (SK-MEL-2): 48.2 µM (inactive); GI50 (OVCAR-5): > 100 µM (inactive); GI50 (PC-3): > 100 µM (inactive); GI50 (SK-MEL-5): > 100 µM (inactive); GI50 (M14): 97.7 µM (inactive); GI50 (MOLT-4): 37.8 µM (inactive); GI50 (MDA-MB-435): 81.1 µM (inactive); GI50 (Malme-3M): 89.3 µM (inactive); GI50 (A498): > 100 µM (inactive); GI50 (CAKI-1): > 100 µM (inactive); GI50 (SF-539): > 100 µM (inactive); GI50 (SNB-75): > 100 µM (inactive); GI50 (IGROV-1): > 100 µM (inactive); GI50 (MDA-MB-231): > 100 µM (inactive); GI50 (SK-MEL-28): > 100 µM (inactive); GI50 (T47D): 40.8 µM (inactive); GI50 (MDA-N): > 100 µM (inactive); GI50 (SF-268): > 100 µM (inactive); GI50 (SNB-19): > 100 µM (inactive); GI50 (U-251): 67.9 µM (inactive); GI50 (SK-OV-3): > 100 µM (inactive); GI50 (K562): 39.3 µM (inactive); GI50 (RPMI-8226): 33.5 µM (inactive); GI50 (CCRF-CEM): 29.2 µM (inactive); GI50 (DU-145): > 100 µM (inactive); GI50 (SR): 91.4 µM (inactive); GI50 (ACHN): > 100 µM (inactive); GI50 (HCT-116): > 100 µM (inactive); GI50 (UACC-257): 68.9 µM (inactive); GI50 (COLO 205): > 100 µM (inactive); GI50 (TK-10): > 100 µM (inactive); GI50 (UACC-62): > 100 µM (inactive); GI50 (MCF7): 37.6 µM (inactive); GI50 (HT-29): > 100 µM (inactive); GI50 (KM12): > 100 µM (inactive); GI50 (NCI-H522): > 100 µM (inactive); GI50 (SN12C): > 100 µM (inactive); GI50 (NCI-H460): > 100 µM (inactive); GI50 (UO-31): 97.3 µM (inactive); GI50 (RXF 393): > 100 µM (inactive); GI50 (786-0): > 100 µM (inactive); GI50 (LOX IMVI): 79.6 µM (inactive); GI50 (HCC 2998): 48.4 µM (inactive); GI50 (BT-549): > 100 µM (inactive); GI50 (OVCAR-3): > 100 µM (inactive); GI50 (HL-60): 27.6 µM (inactive); GI50 (NCI/ADR-RES): > 100 µM (inactive); GI50 (SW-620): 97.9 µM (inactive); GI50 (A549): > 100 µM (inactive); GI50 (HCT-15): > 100 µM; GI50 (OVCAR-8): > 100 µM (inactive); GI50 (HOP-62): > 100 µM (inactive)
